# In patent US7943641B2, “7-((1H-imidazol-4-yl)methyl)-5,6,7,8-tetrahydroquinoline” (Allergan, Inc., priority 2006, dated 2011):
# Where a name gives a salt, the structure may show the parent alone.
# Assays:
# α2A adrenergic receptor = target: T1, α2A adrenergic receptor (Homo sapiens, UniProt P08913); assay: RSAT (Receptor Selection and Amplification Technology) assay, α2A; format: cell-based; conditions: NIH-3T3 cells cotransfected with receptor and G protein
# T1 construct: expressed in transfected cells; host or cells: NIH-3T3 cells
# T1 sequence (P08913 1-465): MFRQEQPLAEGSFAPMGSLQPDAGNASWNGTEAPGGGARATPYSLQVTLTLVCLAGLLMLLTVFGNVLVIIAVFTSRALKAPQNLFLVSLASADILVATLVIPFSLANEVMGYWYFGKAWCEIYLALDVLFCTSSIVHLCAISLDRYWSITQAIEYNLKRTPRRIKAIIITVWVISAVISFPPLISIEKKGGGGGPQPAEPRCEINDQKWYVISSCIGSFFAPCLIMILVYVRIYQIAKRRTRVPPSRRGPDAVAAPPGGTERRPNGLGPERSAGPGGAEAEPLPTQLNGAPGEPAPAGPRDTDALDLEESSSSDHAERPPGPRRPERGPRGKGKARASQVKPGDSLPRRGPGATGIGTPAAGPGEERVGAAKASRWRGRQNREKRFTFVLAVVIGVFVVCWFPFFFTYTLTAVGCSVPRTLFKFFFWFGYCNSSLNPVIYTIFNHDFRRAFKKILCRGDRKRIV
# Description: Incubations continue 72-96 hr at 37° C.
# [1] = test system: IOP in the hypertensive eye; assay: Telemetry IOP model (telemetrized primate model); format: in vivo, Cynomolgus monkeys (macaca fascicularis)
# Description: Cynomolgus (macaca fascicularis) monkeys weighing 3-5 kg with unilateral ocular hypertension in the right eye (OD) are used. Sustained elevated IOP is created by circumferential argon laser photocoagulation (Zeiss Visulas 532) of the mid-trabecular meshwork according to the method of Gaasterland and Kupfer (5). IOPs are assessed at T=−0.1, 0, 1, 2, 4, and 6, hours with an optional reading at 24 hours using an applanation pneumatonometer (Model 30 Classic, mentor Co). A drop of proparacaine (Allergan, Inc.) is instilled into the eyes just prior to IOP measurements. Monkeys are chaired and conditioned for tonometry for months before initiation of the study. Results are averaged from the 2 hr to the 6 hr time points (averages for each animal are calculated and the group mean determined) in an effort to simplify and standardize the data and include a comparison of sustained responses. Depending on the design of the study, either a paired or unpaired Student's t test is done. P<0.05 is considered significant.
# Telemetry IOP model. Cynomolgus monkeys (3-5 kg) are made unilaterally ocular hypertensive by argon laser as noted above. The telemetry implant procedure is performed following elevation of IOP. Briefly, the scalp is prepared for aseptic surgery, followed by a 4 cm incision and tissue blunt-dissection to form a pocket in the underlying fascia to contain the pressure transducer. The catheter from the transducer is then guided subcutaneously to the orbit, and inserted into the vitreous cavity of the glaucoma eye through a small opening in the pars plana which is sutured closed and fixed with tissue adhesive. Receivers are placed into the animal cages and connected to a computer running Dataquest software for data capture. Animals are housed in a 12 hours light, 12 hours dark cycle: 6:00 AM ON, 6:00 PM OFF. Animals are used in drug studies following recovery from the surgical procedure which takes 2 weeks to 1 month. Dosing is done by transferring animals to restraining chairs. Animals are dosed without the aid of a sedative. […]
compound,measurement,setting,value
"c1cnc2c(c1)CCC(Cc1c[nH]cn1)C2 (racemic) [racemic mixture, 7-(1H-Imidazol-4-ylmethyl)-5,6,7,8-tetrahydro-quinoline dihydrochloride]",EC50,α2A adrenergic receptor,3.9 nM
same,% IOP decrease from baseline in the hypertensive eye,[1]; dose 0.30%,30%
"c1cnc2c(c1)CCC(Cc1c[nH]cn1)C2 (single isomer, unassigned; (-)) [(−) enantiomer, (−) 7-((1H-imidazol-4-yl)methyl)-5,6,7,8-tetrahydroquinoline]",EC50,α2A adrenergic receptor,58.4 nM
same,% IOP decrease from baseline in the hypertensive eye,[1]; dose 0.30%,0%
"c1cnc2c(c1)CCC(Cc1c[nH]cn1)C2 (single isomer, unassigned; (+)) [(+) enantiomer, (+)-7-(1H-imidazol-4-ylmethyl)-5,6,7,8-tetrahydro-quinoline dihydrochloride]",EC50,α2A adrenergic receptor,2.9 nM
same,% IOP decrease from baseline in the hypertensive eye,[1]; dose 0.15%,30%
